Assay results published in paper PMC3169406, “Structure of a cyclin-dependent kinase from Giardia lamblia” (Acta Crystallographica Section F: Structural Biology and …, 2011).

Molecular target: T1, GlCDK (cyclin-dependent kinase from G. lamblia) (Giardia duodenalis, UniProt A8BZ95)
T1 construct: gene GL50803_008037; monomer in asymmetric unit; residues Ser11-Pro308 observed
T1 sequence (A8BZ95 1-308): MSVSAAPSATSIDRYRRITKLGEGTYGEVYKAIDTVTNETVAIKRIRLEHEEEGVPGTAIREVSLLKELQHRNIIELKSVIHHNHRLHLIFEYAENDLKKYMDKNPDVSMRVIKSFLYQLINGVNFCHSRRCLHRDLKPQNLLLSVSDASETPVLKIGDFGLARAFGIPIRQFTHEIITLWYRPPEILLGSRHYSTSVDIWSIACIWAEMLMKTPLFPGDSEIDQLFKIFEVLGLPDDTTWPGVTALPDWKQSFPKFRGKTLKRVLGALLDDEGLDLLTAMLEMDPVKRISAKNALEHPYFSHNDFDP
Test: X-ray crystal structure, […] A, crystal soak
Conditions: 1 mM AMP, 1 mM MgCl2, overnight soak; 200 mM sodium/potassium tartrate, 100 mM Bis-Tris propane, 25% PEG 3350; no cyclin; ATP-binding site

Question: Which “X-ray crystal structure, 2.0 A, crystal soak” value does the source give for `Nc1ncnc2c1ncn2[C@@H]1O[C@H](COP(=O)(O)O)[C@@H](O)[C@H]1O` [AMP, adenosine monophosphate] here?
Answer: Good OMIT density was observed for one AMP molecule
